Source: ChEMBL document CHEMBL1201862, “PubChem BioAssay data set” (2004)
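Assay format: 96-well plates, 48-hour exposure. The concentration for 50% growth inhibition is given as GI50.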 Calls of active or inactive are those of the source. Rule as the data show it: active = GI50 up to about 1.1 µM and inactive = higher.

Legend:
Assay in all cases: growth of human tumour cells (NCI), 48 h
[1] = test system: U-251
[2] = test system: KM12
[3] = test system: A549
[4] = test system: IGROV-1
[5] = test system: SK-MEL-28
[6] = test system: NCI-H226
[7] = test system: HCC 2998
[8] = test system: MDA-MB-435
[9] = test system: EKVX
[10] = test system: MCF7
[11] = test system: CCRF-CEM
[12] = test system: 786-0
[13] = test system: SNB-19
[14] = test system: HL-60
[15] = test system: SF-295
[16] = test system: NCI/ADR-RES

Measured: GI50

O=C1c2ccccc2N1C(=O)c1ccccc1[N+](=O)[O-]
inactive: [1] 90.6 µM | [2] 50 µM | [3] 45.2 µM | [4] > 100 µM | [5] > 100 µM | [6] 12.3 µM | [7] > 100 µM | [8] > 100 µM | [9] > 100 µM | [10] 97.1 µM | [11] 48.9 µM | [12] 57 µM | [13] > 100 µM | [14] > 10 µM

COc1cc(CSc2ccc(O)cc2)cc(OC)c1OC
inactive: [1] 29.2 µM | [2] 30.2 µM | [3] 48.4 µM | [15] 24.9 µM | [4] 48.5 µM | [5] 76.7 µM | [6] 29 µM | [16] 24.7 µM | [8] 27.6 µM | [9] 39.8 µM | [10] 4.31 µM | [11] > 10 µM | [12] 55.3 µM | [13] 34.6 µM | [14] 20.4 µM

Cc1nc(N)nc(S)c1CCCNc1ccccc1
inactive: [1] 68.9 µM | [2] 76.7 µM | [3] 52.2 µM | [15] 56.4 µM | [4] > 100 µM | [5] > 100 µM | [6] > 100 µM | [16] > 100 µM | [8] 74 µM | [9] 60 µM | [10] 38 µM | [11] 28 µM | [12] > 100 µM | [13] 89.7 µM | [14] 50 µM

COC(=O)c1c(O)ccc2c1c1c(n2Cc2ccc(OC)cc2)C(=O)c2ccccc2C1
inactive: [1] 47.3 µM | [2] 63.7 µM | [3] 45.9 µM | [15] 47.4 µM | [4] 21.6 µM | [5] > 100 µM | [6] > 100 µM | [16] 32.9 µM | [8] 45.7 µM | [10] 22.4 µM | [11] 21.9 µM | [12] 53.2 µM | [13] 71 µM | [14] > 100 µM

COc1ccc(-c2nnc(-c3ccncc3)o2)cc1
inactive: [1] > 100 µM | [3] > 100 µM | [15] > 100 µM | [4] > 100 µM | [5] > 100 µM | [6] > 100 µM | [16] > 100 µM | [8] > 100 µM | [9] > 100 µM | [10] > 100 µM | [11] > 100 µM | [12] > 100 µM | [13] 78.7 µM | [14] > 100 µM

CC(C)(C)[Si](C)(C)OCC1OC(n2cnc3c(N)ncnc32)C(O)C1O (stereo not drawn)
inactive: [1] > 100 µM | [2] 37.3 µM | [3] > 100 µM | [15] > 100 µM | [4] > 100 µM | [5] > 100 µM | [6] > 100 µM | [16] 87.7 µM | [8] > 100 µM | [9] > 100 µM | [10] > 100 µM | [11] 95.9 µM | [12] > 100 µM | [13] > 100 µM | [14] > 100 µM

CC(=O)c1ccc(N2CCN(C3=CC(=O)c4c(O)ccc(O)c4C3=O)CC2)cc1
inactive: [1] 16.2 µM | [2] 51.8 µM | [3] 19 µM | [15] 35 µM | [4] 45.9 µM | [5] > 100 µM | [7] > 100 µM | [16] 3.44 µM | [9] > 100 µM | [10] 35.9 µM | [11] 15.2 µM | [12] > 100 µM | [13] 62.4 µM | [14] 10.4 µM

COc1c(C)c(C/C=C(\C)CCCC(C)CCCC(C)CCCC(C)C)c(OC)c2ccccc12 (stereo not drawn)
inactive: [1] > 100 µM | [2] > 100 µM | [3] > 100 µM | [15] > 100 µM | [4] > 100 µM | [7] > 100 µM | [16] > 100 µM | [8] > 100 µM | [9] > 100 µM | [10] > 100 µM | [11] > 100 µM | [12] > 100 µM | [13] > 100 µM

CNc1ncnc2c1nc(NC1CCCC1)n2C1OC(CO)C(O)C1O (stereo not drawn)
inactive: [1] > 100 µM | [2] > 100 µM | [3] > 100 µM | [15] > 100 µM | [5] > 100 µM | [7] > 100 µM | [16] > 100 µM | [8] > 100 µM | [10] > 100 µM | [12] > 100 µM | [13] > 100 µM

COC(=O)c1cc(=O)nc2sc3cccc(C)c3n12
inactive: [1] 22.2 µM | [2] > 100 µM | [3] 46.9 µM | [15] 67 µM | [4] 92 µM | [5] 62.8 µM | [6] 18.7 µM | [16] > 100 µM | [8] 42 µM | [9] 29.6 µM | [10] 52.5 µM | [11] 20.2 µM | [12] 21.3 µM | [13] 46.3 µM | [14] 19 µM

Nc1ccc2c(SCCSc3c4ccccc4nc4cc(N)ccc34)c3ccccc3nc2c1
inactive: [1] 49.3 µM | [2] > 100 µM | [3] > 100 µM | [15] > 100 µM | [4] > 100 µM | [5] > 100 µM | [6] > 100 µM | [16] > 100 µM | [8] > 100 µM | [9] > 100 µM | [10] > 100 µM | [11] 38.5 µM | [12] > 100 µM | [13] > 100 µM

CCCCCCOc1ccc(NC2=C(Cl)C(=O)c3cccnc3C2=O)cc1
inactive: [1] 2.29 µM | [2] 1.61 µM | [3] 1.95 µM | [15] 3.65 µM | [4] 1.88 µM | [5] 2.13 µM | [6] 1.74 µM | [7] 1.56 µM | [8] 1.75 µM | [9] 1.67 µM | [10] 1.21 µM | [11] 1.65 µM | [12] 1.48 µM | [13] 2.7 µM | [14] 1.15 µM

CO[C@H]1O[C@@H]2OC3(C)CCC4[C@H](C)CCC([C@H]1C)[C@]42OO3 (stereo partly drawn)
inactive: [1] > 100 µM | [3] > 100 µM | [15] > 100 µM | [4] > 100 µM | [5] > 100 µM | [6] > 100 µM | [7] > 100 µM | [16] 44.2 µM | [8] > 100 µM | [9] > 100 µM | [11] 19.1 µM | [12] > 100 µM | [13] > 100 µM | [14] 1.32 µM

N#Cc1cc(Sc2ccc(N)c(C#N)c2)ccc1N
inactive: [1] 29.3 µM | [2] 8.63 µM | [3] 29.9 µM | [15] 17.6 µM | [4] 25.1 µM | [5] 55.2 µM | [6] 19.6 µM | [16] 13.3 µM | [8] 2.55 µM | [9] 16 µM | [10] 15.8 µM | [11] 9.64 µM | [12] 17.6 µM | [13] 14.8 µM | [14] 1.87 µM
